Converted amounts (≈) assume the structure as drawn.
Legend:
M. tuberculosis H37Rv = test: Resazurin reduction microtiter assay (REMA), growth inhibition and MIC determination; format: cell-based; conditions: Mycobacterium tuberculosis, 168 h, 7 days at 37° C.; for inhibition at 20 µM: at 20 uM compound, read-out: H37Rv inh % at 20 uM; for MIC: two-fold serial dilution from 100 to 0.16 μM, read-out: H37Rv MIC90
human PLK1 kinase domain = target: T1, human PLK1 kinase domain (Homo sapiens, UniProt P53350); test: In vitro PLK1 assay (IMAP fluorescence polarization kinase assay); format: biochemical; conditions: for inhibition at 10 µM: at 10 uM compound; for IC50: 30 nM PLK1 kinase domain, 16 μM ATP (=Kmapp), 90 min at room temperature
T1 construct: Each reaction consisted of 30 nM enzyme PLK1 kinase domain
T1 sequence (P53350 53-305 limits assumed): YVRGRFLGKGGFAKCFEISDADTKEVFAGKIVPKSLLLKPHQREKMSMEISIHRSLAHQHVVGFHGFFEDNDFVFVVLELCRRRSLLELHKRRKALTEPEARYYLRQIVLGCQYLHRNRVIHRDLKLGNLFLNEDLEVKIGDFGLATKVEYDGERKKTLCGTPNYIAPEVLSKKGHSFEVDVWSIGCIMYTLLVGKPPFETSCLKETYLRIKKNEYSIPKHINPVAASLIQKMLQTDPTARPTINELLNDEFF
Protocol: The activity of the compounds described in the present invention was determined using a commercially available IMAP Screening Express Assay Kit (Molecular devices).
This method measures the change in the fluorescent polarization of a fluorescently-labeled peptide due to the effect of human PLK1 kinase domain on it. PLK1 kinase assays were performed in low protein binding 384-well plates (Corning 3676). Test compounds were diluted in 100% DMSO to 5 mM stock concentration, the further dilutions were made in H2O or 100% DMSO to desirable concentrations.
Each reaction consisted of 30 nM enzyme PLK1 kinase domain, 400 nM 5TAMRA-RGSFNDTLDFD-NH2 (Genecust Europe), 16 μM ATP (=Kmapp, Sigma-Aldrich) and kinase buffer: 20 mM HEPES pH 7.5 (Sigma-Aldrich), 1 mM DTT (Sigma-Aldrich), 10 mM MgCl2 (Sigma-Aldrich), 0.01% Triton X-100 (Sigma-Aldrich).
For each reaction, 4 or 6 μl containing 5TAMRA-RGSFNDTLDFD-NH2, ATP and kinase buffer were combined with 2 μl diluted compound in H2O or 0.04 μl compound in 100% DMSO. The kinase reaction was started by the addition of 2 μl diluted enzyme. The reaction was allowed to run for 90 minutes at room temperature. The reaction was stopped by adding 15 μl IMAP beads (1:1200 beads in progressive (40% buffer A, 60% buffer B) 1× buffer). After an additional 60 minutes, fluorescent polarization (Ex: 550-10 nm, Em: 590-10 nm, Dich: 561 nm) was measured using Analyst GT multimode reader (Molecular Devices).

| SMILES | HepG2 TD50 (HepG2) | inhibition at 20 µM (M. tuberculosis H37Rv) [%] | MIC (M. tuberculosis H37Rv) [µM] | inhibition at 10 µM (human PLK1 kinase domain) [%] | IC50 (human PLK1 kinase domain) [nM] |
| --- | --- | --- | --- | --- | --- |
| COc1ccc(C(C)(C)C)cc1-c1cc(Nc2ccc(S(=O)(=O)Nc3onc(C)c3C)cc2)ncn1 [Example 6, 4-[6-(5-tert-Butyl-2-methoxy-phenyl)-pyrimidin-4-ylamino]-N-(3,4-dimethyl-isoxazol-5-yl)-benzenesulfonamide] | 19.6 | 94.1 | 19.6 (≈ 9.95 µg/mL) | 26.1 | – |
| COc1ccc(-c2cc(Nc3ccc(S(=O)(=O)Nc4onc(C)c4C)cc3)ncn2)c(OC)c1 [Example 37, 4-[6-(2,4-Dimethoxy-phenyl)-pyrimidin-4-ylamino]-N-(3,4-dimethyl-isoxazol-5-yl)-benzenesulfonamide] | 16.1 | 101 | 13.7 (≈ 6.57 µg/mL) | 70 | 947 |
| COc1cccc(F)c1-c1cc(Nc2ccc(S(=O)(=O)Nc3onc(C)c3C)cc2)ncn1 [Example 12, N-(3,4-Dimethyl-isoxazol-5-yl)-4-[6-(2-fluoro-6-methoxy-phenyl)-pyrimidin-4-ylamino]-benzenesulfonamide] | 19.6 | 102 | 1.13 (≈ 0.531 µg/mL) | 83.3 | 1460 |
| COc1cccc(OC)c1-c1cc(Nc2ccc(S(=O)(=O)Nc3onc(C)c3C)cc2)ncn1 [Example 22, 4-[6-(2,6-Dimethoxy-phenyl)-pyrimidin-4-ylamino]-N-(3,4-dimethyl-isoxazol-5-yl)-benzenesulfonamide] | 9.819 | 102 | 7.24 (≈ 3.49 µg/mL) | 10.1 | – |
| COc1cccc(Cl)c1-c1cc(Nc2ccc(S(=O)(=O)Nc3onc(C)c3C)cc2)ncn1 [Example 15, 4-[6-(2-Chloro-6-methoxy-phenyl)-pyrimidin-4-ylamino]-N-(3,4-dimethyl-isoxazol-5-yl)-benzenesulfonamide] | 0.0458 | 102 | 0.292 (≈ 0.142 µg/mL) | 96.4 | – |
| Cc1noc(NS(=O)(=O)c2ccc(Nc3cc(-c4cccc5c4OCO5)ncn3)cc2)c1C [Example 3, 4-(6-Benzo[1,3]dioxol-4-yl-pyrimidin-4-ylamino)-N-(3,4-dimethyl-isoxazol-5-yl)-benzenesulfonamide] | – | -7.2 | – | 48.5 | – |
| COc1ccc(C)cc1-c1cc(Nc2ccc(S(=O)(=O)Nc3onc(C)c3C)cc2)ncn1 [Example 9, N-(3,4-Dimethyl-isoxazol-5-yl)-4-[6-(2-methoxy-5-methyl-phenyl)-pyrimidin-4-ylamino]-benzenesulfonamide] | 19.6 | 101 | 19.3 (≈ 8.98 µg/mL) | 67.6 | 807 |
| Cc1noc(NS(=O)(=O)c2ccc(Nc3cc(-c4cc(Cl)ccc4Cl)ncn3)cc2)c1C [Example 16, 4-[6-(2,5-Dichloro-phenyl)-pyrimidin-4-ylamino]-N-(3,4-dimethyl-isoxazol-5-yl)-benzenesulfonamide] | 2.37 | 100 | 11.8 (≈ 5.76 µg/mL) | 7.9 | 604 |
| COc1cc(F)ccc1-c1cc(Nc2ccc(S(=O)(=O)Nc3onc(C)c3C)cc2)ncn1 [Example 18, N-(3,4-Dimethyl-isoxazol-5-yl)-4-[6-(4-fluoro-2-methoxy-phenyl)-pyrimidin-4-ylamino]-benzenesulfonamide] | – | -8.6 | – | 63.3 | 40 |
| COc1cccc(-c2cc(Nc3ccc(S(=O)(=O)Nc4onc(C)c4C)cc3)ncn2)c1OC [Example 36, 4-[6-(2,3-Dimethoxy-phenyl)-pyrimidin-4-ylamino]-N-(3,4-dimethyl-isoxazol-5-yl)-benzenesulfonamide] | – | -9.8 | – | 77.3 | 2180 |
| Cc1noc(NS(=O)(=O)c2ccc(Nc3cc(-c4ccccc4OC(F)(F)F)ncn3)cc2)c1C [Example 2, N-(3,4-Dimethyl-isoxazol-5-yl)-4-[6-(2-trifluoromethoxy-phenyl)-pyrimidin-4-ylamino]-benzenesulfonamide] | – | 102 | 9.71 (≈ 4.91 µg/mL) | 69 | 698 |
| Cc1noc(NS(=O)(=O)c2ccc(Nc3cc(-c4ccccc4)ncn3)cc2)c1C [Example 39, N-(3,4-Dimethyl-isoxazol-5-yl)-4-(6-phenyl-pyrimidin-4-ylamino)-benzenesulfonamide] | – | -22.2 | – | 57.9 | – |
| Cc1noc(NS(=O)(=O)c2ccc(Nc3cc(-c4cc(Cl)ccc4OC(C)C)ncn3)cc2)c1C [Example 24, 4-[6-(5-Chloro-2-isopropoxy-phenyl)-pyrimidin-4-ylamino]-N-(3,4-dimethyl-isoxazol-5-yl)-benzenesulfonamide] | – | -20.4 | – | 80.7 | 3750 |
| Cc1noc(NS(=O)(=O)c2ccc(Nc3cc(-c4ccc(C(F)(F)F)cc4)ncn3)cc2)c1C [Example 25, N-(3,4-Dimethyl-isoxazol-5-yl)-4-[6-(4-trifluoromethyl-phenyl)-pyrimidin-4-ylamino]-benzenesulfonamide] | – | -9.8 | – | 0 | – |
| COc1ccccc1-c1cc(Nc2ccc(S(=O)(=O)Nc3nnc(C)s3)cc2)ncn1 [Example 32, 4-[6-(2-Methoxy-phenyl)-pyrimidin-4-ylamino]-N-(5-methyl-[1,3,4]thiadiazol-2-yl)-benzenesulfonamide] | – | 100 | 18.5 (≈ 8.41 µg/mL) | 63.5 | 917 |
